Results taken from patent publication US9024022B2, “Substrates of O6-alkylguanine-DNA alkyltransferase and mutants thereof” (Cis Bio International, priority 2008, dated 2015).

Tests used:
[1] = target: T1, SNAP-tag-ST26 enzyme (SNAP-tag-mGluR2 fusion protein) (Homo sapiens, UniProt P16455, A127T/C150S/C62A/G131K/G132T/K125A/M134L/N157G/R128A/R135S/S159E); test: Enzymatic reactivity test in a cell model, SNAP-tag-mGluR2 expressed by COS 7 cells; type: cell-based; details: living COS 7 cells, labeling 1 h at 37° C., read-out: half saturation concentration of the enzyme
T1 construct: expressed in transfected cells; host or cells: COS 7 cells, transient electroporation
T1 sequence (P16455 1-182 C62A/K125A/A127T/R128A/G131K/G132T/M134L/R135S/C150S/N157G/S159E limits assumed): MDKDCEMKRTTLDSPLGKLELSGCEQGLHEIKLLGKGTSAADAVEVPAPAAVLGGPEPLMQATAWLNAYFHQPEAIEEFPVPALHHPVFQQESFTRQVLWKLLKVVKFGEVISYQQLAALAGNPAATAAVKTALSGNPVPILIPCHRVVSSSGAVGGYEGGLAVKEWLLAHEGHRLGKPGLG
Protocol: (§1) This procedure makes it possible to test the reactivity of substrates according to the invention with an AGT expressed by COS 7 cells in the form of a fusion protein with the type 2 glutamate transmembrane receptor (mGluR2).
(§2) Various mutants of AGT were analyzed in this study: SNAP-tag-ST26 or CLIP-tag from Covalys or the N-AGT mutant described by Gronemeyer et al. (Protein Engineering, Design & Selection, Vol. 19, No. 7, pp. 309-316, 2006).
• SNAP-tag-mGluR2 plasmid, prepared from the pSET-26b plasmid according to the protocol of the commercial kit (SNAP express pSTE7-26b kit, Covalys Biosciences) • Invitrogen pcdna3.1 plasmid. This plasmid is used as a negative control; the cells transfected with this plasmid are denoted “mock” and make it possible to determine the level of non-specific labeling. Protocol:
(§3) The transient transfection of the cells is carried out by electroporation using a Biorad electroporator: 10 million cells are transfected by 1 μg SNAP-tag-mGluR2+3 μg pcdna3.1 in a final volume of 300 μl. The electroporation parameters are: 280 V & 1000 μF.
(§4) The cells are then seeded at 150 000 cells per well in Greiner plates (opaque black bottom) previously incubated with polyornithine for 30 minutes at 37° C.
(§5) The cells are cultured in the DMEM+Phenol Red+10% FCS+penicillin/streptomycin+non-essential amino acids medium at 37° C. and 5% CO2. After 24 h of expression, a first washing operation is carried out with 100 μl of this same medium.
(§6) The labeling of the AGT-mGluR2 fusion protein takes place in 100 μl of complete medium with increasing concentrations of BG-fluorophore or BG-L1-A-L2-fluorophore according to the invention for 1 h at 37° C. Before the reading, 4 washing operations are carried out with 100 μl of Tris-Krebs.
(§7) For the substrates bearing fluorophores ATTO647 (example 2), DY647 (examples 1 and 5) and fluorescein-5-EX (example 3), the reading is carried out in 100 μl of Tris-Krebs in direct fluorescence at 682 nm on a Rubystar machine, and at 520 nm for those bearing fluorescein-5-EX (example 3).
(§8) For the substrates bearing the terbium KR complex (examples 4 and 6), the reading is taken in 100 μl of Tris-Krebs in time-resolved fluorescence at 620 nm on a Rubystar machine.

[2] = target: T2, SNAP-tag enzyme (GST-SNAP-tag-FKBP fusion protein) (Homo sapiens, UniProt P16455, A127T/C150S/C62A/G131K/G132T/K125A/M134L/N157G/R128A/R135S/S159E); test: Enzymatic reactivity test in an in vitro model (TR-FRET labeling of GST-SNAPtag-FKBP recombinant protein); type: biochemical; details: for reactivity of the substrate with the SNAP-tag enzyme: in vitro protein labeling, compared with reference substrate
T2 construct: GST (N)
T2 sequence (P16455 1-182 C62A/K125A/A127T/R128A/G131K/G132T/M134L/R135S/C150S/N157G/S159E limits assumed): T1 sequence (P16455 1-182 C62A/K125A/A127T/R128A/G131K/G132T/M134L/R135S/C150S/N157G/S159E limits assumed)
Source text: The test of reactivity of the substrates according to the invention with the SNAP-tag enzyme is based on an in vitro test of labeling a recombinant protein.
In this case, use is made of the FRB and FKBP proteins that interact in the presence of rapamycin.
The FKBP protein is labeled by a first fluorophore via SNAP-tag technology: for this, a GST-SNAPtag-FKBP fusion protein is produced from the pSET7-26b plasmid according to the protocol of the commercial kit (SNAP express pSET7-26b kit, Covalys Biosciences AG, Witterswil/Switzerland). This fusion protein is then brought into contact with the first fluorophore conjugated to a reference BG derivative or to a BG derivative according to the invention.
The FRB protein is itself coupled via conventional conjugation techniques with a donor fluorescent compound (europium TBP cryptate (KTBP), Cisbio Bioassay) or acceptor fluorescent compound (DY647, Dyomics) depending on the case, following the protocols provided with these products.
The table below explains the nature of the pairs of fluorophores in each of the following examples 1 to 4:
In each example, 2 nmol of FRB recombinant protein labeled with a europium cryptate or DY647 (2nd fluorophore) are co-incubated at ambient temperature with 2 nmol of GST-SNAP-tag-FKBP recombinant protein and increasing concentrations of BG labeled by the first fluorophore (BG-fluorophore of the prior art or BG-L1-A-L2-fluorophore according to the invention).
The fluorescence readings are taken at 620 nm and at 665 nm on a RubyStar machine (BMG laboratory) after an excitation at 337 nm. The readings are carried out before and after induction of the FRB/FKBP protein interaction by 100 nM of rapamycin. This interaction is expressed by the emission of a TR-FRET signal. Since the SNAP-tag enzyme can only attach to a single fluorescent group, the increase in the TR-FRET signal is directly proportional to the percentage of labeled proteins in the reaction medium. This in vitro model makes it possible to establish enzymatic labeling kinetics as a function of the excess of substrate involved in the reaction.
The results are indicated either as d665 or as % labeling according to the following formulae: d 665=(signal at 665 nm with the GST-ST-FKBP protein)−(signal at 665 nm without the GST-ST-FKBP protein).
The percentage of labeling is obtained by comparison with the signal corresponding to the maximum labeling that is obtained after 18 hours of incubation. % labeling=(d665 at t measured/d665 18 h of incubation)×100. Procedure of the Enzymatic Reactivity Test in a Cell Model

[3] = target: T3, N-AGT enzyme (AGT-mGluR2 fusion protein) (Homo sapiens, UniProt P16455); test: Enzymatic reactivity test in a cell model, N-AGT mutant; type: cell-based; details: for EC50: living cells, N-AGT mutant, labeling 1 h at 37° C., read-out: half saturation concentration of the enzyme
T3 construct: fused on or other part: type 2 metabotropic glutamate receptor (mGluR2)
T3 sequence (P16455 whole entry, looked up, the tested form may be a part): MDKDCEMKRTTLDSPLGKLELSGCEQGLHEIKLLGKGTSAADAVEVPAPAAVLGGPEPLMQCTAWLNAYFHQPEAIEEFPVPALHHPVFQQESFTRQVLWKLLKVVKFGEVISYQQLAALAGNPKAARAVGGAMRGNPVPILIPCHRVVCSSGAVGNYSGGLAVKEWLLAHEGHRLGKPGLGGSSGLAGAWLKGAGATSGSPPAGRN
Protocol: as §1, §2, §3, §4, §5, §6, §7, §8
In order to validate the effect of the substrate according to the invention on another mutant of AGT, a characterization of extracellular labeling with the NAGT mutant was carried out.

[4] = target: T4, CLIP-tag enzyme (CLIPtag-mGluR2 fusion protein) (Homo sapiens, UniProt P16455, A121V/A127T/A154D/C150Q/C62A/G131N/G132T/G153S/K125A/K32I/L33F/M134L/M60I/N157P/Q115S/Q116H/R128A/R135D/S151G/S152D/S159L/Y114E); test: Cell model with CLIPtag-mGluR2 and SNAPtag-mGluR2 cotransfection, TR-FRET at 665 nm; type: cell-based; details: cells incubated with 300 nM of BG-methylbenzamide-Tb(KR); TR-FRET; read-out: half saturation concentration of CLIPtag
T4 construct: The co-expressed SNAPtag-mGluR2 is a separate chain that carries the FRET partner dye
T4 sequence (P16455 1-207 K32I/L33F/M60I/C62A/Y114E/Q115S/Q116H/A121V/K125A/A127T/R128A/G131N/G132T/M134L/R135D/C150Q/S151G/S152D/G153S/A154D/N157P/S159L): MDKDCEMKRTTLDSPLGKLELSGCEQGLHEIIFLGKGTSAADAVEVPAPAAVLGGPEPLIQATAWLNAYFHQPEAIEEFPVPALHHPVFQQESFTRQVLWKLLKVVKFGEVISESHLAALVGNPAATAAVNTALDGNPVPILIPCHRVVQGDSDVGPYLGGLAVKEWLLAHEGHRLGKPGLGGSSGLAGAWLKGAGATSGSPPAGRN
Protocol: (§9) The cell model used in this example is different from that used in the preceding examples:
(§10) The cells are either cotransfected with a plasmid coding for the fusion protein CLIPtag-mGluR2 and another plasmid coding for the fusion protein SNAPtag-mGluR2, or transfected with a single plasmid coding for the fusion protein SNAPtag-mGluR2.
(§11) Each cell population is incubated in the presence of 300 nM of BG-methylbenzamide-DY647 and increasing concentrations of reference substrates (BC-Tb(KR)) or of a substrate according to the invention (BC-methylbenzamide-Tb(KR)). The fluorescence is measured at 665 nm in TR-FRET mode on a Rubystar machine and the signal measured is representative of a transfer of energy following the dimerization of two monomers of mGluR2 labeled respectively by DY647 and Tb(KR).
(§12) This example is carried out in the same way as example 7 but the cells are incubated in the presence of 300 nM of BG-methylbenzamide-Tb(KR) and increasing concentrations of reference substrate (BC-DY647) or of substrate according to the invention (BC-methylbenzamide-DY647), the formulae of which are below: […]

[5] = target: T5, CLIP-tag enzyme (CLIPtag-mGluR2 fusion protein) (Homo sapiens, UniProt P16455, K32I/L33F/M60I/C62A/Y114E/Q115S/Q116H/A121V/K125A/A127T/R128A/G131N/G132T/M134L/R135D/C150Q/S151G/S152D/G153S/A154D/N157P/S159L); test: as above; type: cell-based; details: cells incubated with 300 nM of BG-methylbenzamide-DY647; TR-FRET 665 nm; read-out: half saturation concentration of CLIPtag
T5 construct: The co-expressed SNAPtag-mGluR2 is a separate chain that carries the FRET partner dye
T5 sequence (P16455 1-207 K32I/L33F/M60I/C62A/Y114E/Q115S/Q116H/A121V/K125A/A127T/R128A/G131N/G132T/M134L/R135D/C150Q/S151G/S152D/G153S/A154D/N157P/S159L): T4 sequence (P16455 1-207 K32I/L33F/M60I/C62A/Y114E/Q115S/Q116H/A121V/K125A/A127T/R128A/G131N/G132T/M134L/R135D/C150Q/S151G/S152D/G153S/A154D/N157P/S159L)
Protocol: as §9, §10, §11, §12

Molecule: CCN1/C(=C/C=C/C=C/C2=[N+](CC)c3ccc(S(=O)(=O)[O-])cc3C2(C)C)C(C)(CCCC(=O)NCc2ccc(C(=O)NCc3ccc(COc4nc(N)nc5[nH]cnc45)cc3)cc2)c2cc(S(=O)(=O)O)ccc21 (stereo not drawn) [BG-methylbenzamide-DY647, Dy647-methylbenzamide-BG]
- EC50 [1]: 0.0913 µM
- percentage of labeling of the SNAP-tag enzyme compared with the reference substrate ([2]; in vitro, after 30 min of incubation, regardless of the concentration of substrate): greatly improved
- half saturation concentration, times lower relative to the reference substrate ([3]; N-AGT enzyme, versus BG-DY647): around 2 times
- EC50 [3]: 0.0223 µM

Molecule: Nc1nc(OCc2ccc(CNC(=O)c3ccc(CNC(=O)CCSCC(=O)Nc4ccc(-c5c6ccc(=O)cc-6oc6cc(O)ccc56)c(C(=O)O)c4)cc3)cc2)c2nc[nH]c2n1 [BG-methylbenzamide-fluorescein-5-EX, fluorescein-5-EX-benzylamide-BG]
- reactivity of the substrate with the SNAP-tag enzyme [2]: better than that of the reference substrate

Molecule: CCN1/C(=C/C=C/C=C/C2=[N+](CC)c3ccc(S(=O)(=O)[O-])cc3C2(C)C)C(C)(CCCC(=O)NCc2ccc(C(=O)NCc3ccc(COc4nccc(N)n4)cc3)cc2)c2cc(S(=O)(=O)O)ccc21 (stereo not drawn) [BC-methylbenzamide-DY647, DY647-methylbenzamide-BC]
- EC50 [4]: 0.24 µM

Molecule: CCN1/C(=C/C=C/C=C/C2=[N+](CC)c3ccc(S(=O)(=O)[O-])cc3C2(C)C)C(C)(CCCC(=O)NCc2ccc(COc3nc(N)nc4[nH]cnc34)cc2)c2cc(S(=O)(=O)O)ccc21 (stereo not drawn) [BG-DY647, benzylguanine-Dy647, reference compound]
- EC50 [1]: 0.168 µM
- EC50 [3]: 0.043 µM

Molecule: Tb(KR)-methylbenzamide-BC [BC-methylbenzamide-Tb(KR)]
- EC50 [5]: 0.131 µM

Molecule: CCN1/C(=C/C=C/C=C/C2=[N+](CC)c3ccc(S(=O)(=O)[O-])cc3C2(C)C)C(C)(CCCC(=O)NCc2ccc(COc3nccc(N)n3)cc2)c2cc(S(=O)(=O)O)ccc21 (stereo not drawn) [BC-DY647, benzylcytosine-DY647, reference compound]
- EC50 [4]: 1.57 µM

Molecule: Nc1ccc2cc3ccc(N)cc3[n+](CCCC(=O)NCc3ccc(C(=O)NCc4ccc(COc5cc(N)nc6[nH]cnc56)cc4)cc3)c2c1 [BG-methylbenzamide-Atto465, Atto465-methylbenzamide-BG]
- EC50 [1]: 0.213 µM

Molecule: Nc1nc(OCc2ccc(CNC(=O)CCSCC(=O)Nc3ccc(-c4c5ccc(=O)cc-5oc5cc(O)ccc45)c(C(=O)O)c3)cc2)c2nc[nH]c2n1 [BG-fluorescein-5-EX, benzylguanine-fluorescein-5-EX, reference compound]
- reactivity of the substrate with the SNAP-tag enzyme [2]: adequate
